One data set can be described thus: in vitro. The following applies: plasma.
Data set [1] addresses T1, Steryl-sulfatase (Homo sapiens, UniProt P08842).
T1 sequence (P08842 whole entry): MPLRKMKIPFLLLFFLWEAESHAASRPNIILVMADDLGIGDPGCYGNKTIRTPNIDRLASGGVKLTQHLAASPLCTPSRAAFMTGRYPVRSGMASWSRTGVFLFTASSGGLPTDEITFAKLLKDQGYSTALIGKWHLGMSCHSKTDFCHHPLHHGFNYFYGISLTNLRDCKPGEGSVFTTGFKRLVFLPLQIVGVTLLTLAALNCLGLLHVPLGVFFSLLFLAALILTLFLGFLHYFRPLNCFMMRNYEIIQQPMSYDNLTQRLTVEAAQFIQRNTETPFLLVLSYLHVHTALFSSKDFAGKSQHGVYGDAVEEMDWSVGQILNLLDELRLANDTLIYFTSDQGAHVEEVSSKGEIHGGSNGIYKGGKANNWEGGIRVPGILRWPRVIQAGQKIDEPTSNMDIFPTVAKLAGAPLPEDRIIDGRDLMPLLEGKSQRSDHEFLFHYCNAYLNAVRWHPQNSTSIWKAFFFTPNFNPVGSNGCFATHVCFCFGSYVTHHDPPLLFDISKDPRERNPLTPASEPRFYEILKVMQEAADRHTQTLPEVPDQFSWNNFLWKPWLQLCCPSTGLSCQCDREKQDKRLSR

The target in data set [2] is T1, Steryl-sulfatase. This is another data set of the same source.
Another data set has as its system T47D. Description: cells. The data set is classed as functional, cell-based. The following applies: Homo sapiens.
In data set [3] the target is T2, 3-oxo-5-alpha-steroid 4-dehydrogenase 2 (Homo sapiens, UniProt P31213).
T2 sequence (P31213 whole entry): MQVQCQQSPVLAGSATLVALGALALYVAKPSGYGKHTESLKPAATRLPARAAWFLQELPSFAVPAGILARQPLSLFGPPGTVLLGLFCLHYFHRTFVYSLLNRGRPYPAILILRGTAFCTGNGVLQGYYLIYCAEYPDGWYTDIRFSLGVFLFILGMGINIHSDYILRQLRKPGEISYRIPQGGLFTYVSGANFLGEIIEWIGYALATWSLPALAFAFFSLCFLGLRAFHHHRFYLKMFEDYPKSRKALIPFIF

In data set [4] the target is T3, 3-oxo-5-alpha-steroid 4-dehydrogenase 1 (Homo sapiens, UniProt P18405).
T3 sequence (P18405 whole entry): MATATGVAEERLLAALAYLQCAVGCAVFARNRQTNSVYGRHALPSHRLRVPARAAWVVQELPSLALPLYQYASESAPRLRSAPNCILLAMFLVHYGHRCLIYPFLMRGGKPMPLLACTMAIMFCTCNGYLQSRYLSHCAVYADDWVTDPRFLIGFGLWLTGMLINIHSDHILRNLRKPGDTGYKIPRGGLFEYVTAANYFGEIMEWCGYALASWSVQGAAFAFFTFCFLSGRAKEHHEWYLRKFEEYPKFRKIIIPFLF
The data set is classed as cell-based, HEK293.

Data set [5] concerns the target T4, 3-oxo-5-alpha-steroid 4-dehydrogenase 2 (Rattus norvegicus, UniProt P31214).
T4 sequence (P31214 whole entry): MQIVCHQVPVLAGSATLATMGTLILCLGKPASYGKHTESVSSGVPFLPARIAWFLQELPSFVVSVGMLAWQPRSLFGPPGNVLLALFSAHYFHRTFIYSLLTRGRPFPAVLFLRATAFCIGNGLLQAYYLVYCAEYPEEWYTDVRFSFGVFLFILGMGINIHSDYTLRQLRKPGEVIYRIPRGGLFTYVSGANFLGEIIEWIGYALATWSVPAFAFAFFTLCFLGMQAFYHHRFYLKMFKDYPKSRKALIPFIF

Data set [6] deals with T3, 3-oxo-5-alpha-steroid 4-dehydrogenase 1.
The target of data set [7] is T2, 3-oxo-5-alpha-steroid 4-dehydrogenase 2. This is another data set of the same source.
For data set [8], the target named is T5, 3-oxo-5-alpha-steroid 4-dehydrogenase 1 (Rattus norvegicus, UniProt P24008).
T5 sequence (P24008 whole entry): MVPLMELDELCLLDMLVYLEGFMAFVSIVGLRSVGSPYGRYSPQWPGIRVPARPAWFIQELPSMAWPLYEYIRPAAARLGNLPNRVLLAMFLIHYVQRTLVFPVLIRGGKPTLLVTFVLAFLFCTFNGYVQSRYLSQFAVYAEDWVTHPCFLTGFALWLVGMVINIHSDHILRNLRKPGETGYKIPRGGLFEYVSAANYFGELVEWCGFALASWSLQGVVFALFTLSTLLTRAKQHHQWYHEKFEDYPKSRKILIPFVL

The target in data set [9] is T2, 3-oxo-5-alpha-steroid 4-dehydrogenase 2. The class given is cell-based, HEK293.
Data set [10] has as its target Peptidyl-prolyl cis-trans isomerase FKBP1A (Homo sapiens, UniProt P62942). Description: biochemical. The data set is classed as cell-based.
For data set [11], the target named is Tyrosine-protein phosphatase non-receptor type 1 (Homo sapiens, UniProt P18031). The class given is cell-based, Sf9.
Chain of Tyrosine-protein phosphatase non-receptor type 1 (P18031 whole entry): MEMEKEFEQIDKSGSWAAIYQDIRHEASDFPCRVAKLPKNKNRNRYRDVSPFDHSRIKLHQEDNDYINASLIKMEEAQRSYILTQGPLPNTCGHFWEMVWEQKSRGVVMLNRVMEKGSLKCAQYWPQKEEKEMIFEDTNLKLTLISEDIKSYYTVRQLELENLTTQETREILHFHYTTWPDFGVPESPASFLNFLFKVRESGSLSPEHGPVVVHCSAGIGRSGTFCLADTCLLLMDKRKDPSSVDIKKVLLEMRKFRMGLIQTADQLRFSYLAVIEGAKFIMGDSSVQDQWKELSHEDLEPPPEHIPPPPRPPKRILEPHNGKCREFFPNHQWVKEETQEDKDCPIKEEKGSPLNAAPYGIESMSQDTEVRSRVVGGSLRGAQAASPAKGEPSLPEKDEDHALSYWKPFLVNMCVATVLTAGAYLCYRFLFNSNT

The record followed here is ChEMBL document CHEMBL4371002 (J Med Chem, 2018).

Chain of Peptidyl-prolyl cis-trans isomerase FKBP1A (P62942 whole entry): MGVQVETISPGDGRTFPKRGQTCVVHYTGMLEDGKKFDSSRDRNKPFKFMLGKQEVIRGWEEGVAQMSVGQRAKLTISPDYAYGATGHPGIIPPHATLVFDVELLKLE

On to `Cc1cn2c(C(=O)NCc3ccc(C(F)(F)F)cc3)c(C)nc2s1`, for which, in the data set “in vitro”, the fraction unbound was 0.009.

As for `C[C@]12CC[C@@H]3c4ccc(C(F)(F)S(N)(=O)=O)cc4CC[C@H]3[C@@H]1CCC2=O`, the Ki was 28 µM at Steryl-sulfatase [1] and 82 µM on Steryl-sulfatase [2].

Turning to `C[C@]12CC[C@@H]3c4ccc(C(F)(F)S(=O)(=O)O)cc4CC[C@H]3[C@@H]1CCC2=O`, the Ki stood at 147 µM on Steryl-sulfatase [1] and 73 µM on Steryl-sulfatase [2].

In the case of `O=C1Nc2ccc(S(F)(F)(F)(F)F)cc2/C1=C/c1ccc[nH]1`, the EC50 in the data set on T47D came out at 490 nM.

Regarding `CC(C)(C)NC(=O)[C@H]1CC[C@H]2[C@@H]3CC[C@H]4NC(=O)C=C[C@]4(C)[C@H]3CC[C@]12C` [FINASTERIDE], the IC50 in data set [3] was 58 nM; in [4], 650 nM; in data set [5], 32 nM; in data set [6], 150 to 470 nM; in data set [7], 0.18 to 11.3 nM; in [8], 30 nM.

The molecule `Cc1cn2c(C(=O)NCc3ccc(S(F)(F)(F)(F)F)cc3)c(C)nc2s1` had a fraction unbound in the data set “in vitro” of 0.003.

For the molecule `CC(C)(C)NC(=O)[C@H]1CC[C@H]2[C@@H]3CC=C4C=C(F)CC[C@]4(C)[C@H]3CC[C@]12C`, the 50% inhibitory concentration (IC50) in [4] worked out at 1300 nM; in [9], 480 nM.

Molecule `COc1cc(C(=O)C(=O)N2CCC[C@H]2C(=O)OCCCc2cccnc2)cc(OC)c1OC` showed an inhibition constant (Ki) in data set [10] of 4 µM.

With `O=C(c1ccccc1)C(Cc1ccc(C(F)(F)P(=O)(O)O)c(Br)c1)c1ccccc1` (stereo not drawn), the EC50 in data set [11] was determined as 1200 nM.

In the data set on T47D, `O=C1Nc2cc(S(F)(F)(F)(F)F)ccc2/C1=C/c1ccc[nH]1` had an EC50 of 350 nM.

One may read the fraction unbound as free concentration divided by total concentration. The low end stands for little free substance, the high end for much free substance. The term Ki denotes a measure of affinity in units of concentration, obtained from inhibition or displacement. A low value points to tighter binding. What is called EC50 is the concentration needed to bring the measured effect to its halfway point. Higher therefore signals lower potency in that assay. The term IC50 denotes the concentration needed to halve the response being measured. The low end stands for greater potency, the high end for weaker potency.
